Laboratory results: ChEMBL document CHEMBL2440076, “New triarylpyrazoles as broad-spectrum anticancer agents: design, synthesis, and biological evaluation” (Eur J Med Chem, 2013)

How the values were obtained:
[1] = system: BT-549; assay: Growth inhibition of human BT549 cells assessed as cell growth at 10 uM after 48 hrs by sulforhodamine B assay; assay type: functional; details: BT-549, 48 h, read-out: Activity
[2] = system: MCF7; assay: Growth inhibition of human MCF7 cells assessed as cell growth at 10 uM after 48 hrs by sulforhodamine B assay; assay type: functional; details: MCF7, 48 h, read-out: Activity
[3] = system: MDA-MB-231; assay: Growth inhibition of human MDA-MB-231 cells assessed as cell growth at 10 uM after 48 hrs by sulforhodamine B assay; assay type: functional; details: MDA-MB-231, 48 h, read-out: Activity
[4] = system: UO-31; assay: Growth inhibition of human UO31 cells assessed as cell growth at 10 uM after 48 hrs by sulforhodamine B assay; assay type: functional; details: UO-31, 48 h, read-out: Activity
[5] = system: CAKI-1; assay: Growth inhibition of human CAKI-1 cells assessed as cell growth at 10 uM after 48 hrs by sulforhodamine B assay; assay type: functional; details: CAKI-1, 48 h, read-out: Activity
[6] = system: ACHN; assay: Growth inhibition of human ACHN cells assessed as cell growth at 10 uM after 48 hrs by sulforhodamine B assay; assay type: functional; details: read-out: Activity
[7] = Growth inhibition of human NCI-ADR-RES cells assessed as cell growth at 10 uM after 48 hrs by sulforhodamine B assay; assay type: functional; details: read-out: Activity
[8] = system: OVCAR-5; assay: Growth inhibition of human OVCAR5 cells assessed as cell growth at 10 uM after 48 hrs by sulforhodamine B assay; assay type: functional; details: OVCAR-5, 48 h, read-out: Activity
[9] = system: OVCAR-8; assay: Growth inhibition of human OVCAR8 cells assessed as cell growth at 10 uM after 48 hrs by sulforhodamine B assay; assay type: functional; details: OVCAR-8, 48 h, read-out: Activity
[10] = system: UACC-62; assay: Growth inhibition of human UACC62 cells assessed as cell growth at 10 uM after 48 hrs by sulforhodamine B assay; assay type: functional; details: UACC-62, 48 h, read-out: Activity
[11] = system: M14; assay: Growth inhibition of human M14 cells assessed as cell growth at 10 uM after 48 hrs by sulforhodamine B assay; assay type: functional; details: M14, 48 h, read-out: Activity
[12] = system: SW-620; assay: Growth inhibition of human SW620 cells assessed as cell growth at 10 uM after 48 hrs by sulforhodamine B assay; assay type: functional; details: SW-620, 48 h, read-out: Activity
[13] = system: COLO 205; assay: Growth inhibition of human COLO205 cells assessed as cell growth at 10 uM after 48 hrs by sulforhodamine B assay; assay type: functional; details: COLO 205, 48 h, read-out: Activity
[14] = system: NCI-H522; assay: Growth inhibition of human NCI-H522 cells assessed as cell growth at 10 uM after 48 hrs by sulforhodamine B assay; assay type: functional; details: NCI-H522, 48 h, read-out: Activity
[15] = system: HOP-92; assay: Growth inhibition of human HOP92 cells assessed as cell growth at 10 uM after 48 hrs by sulforhodamine B assay; assay type: functional; details: HOP-92, 48 h, read-out: Activity
[16] = system: K562; assay: Growth inhibition of human K562 cells assessed as cell growth at 10 uM after 48 hrs by sulforhodamine B assay; assay type: functional; details: K562, 48 h, read-out: Activity
[17] = system: NCI-H522; assay: Growth inhibition of human NCI-H522 cells after 48 hrs by sulforhodamine B assay; assay type: functional; details: NCI-H522, 48 h
[18] = system: COLO 205; assay: Growth inhibition of human COLO205 cells after 48 hrs by sulforhodamine B assay; assay type: functional; details: COLO 205, 48 h
[19] = system: NCI-H322M; assay: Growth inhibition of human NCI-H322M cells after 48 hrs by sulforhodamine B assay; assay type: functional
[20] = system: RPMI-8226; assay: Growth inhibition of human RPMI8226 cells after 48 hrs by sulforhodamine B assay; assay type: functional, cell-based; details: RPMI-8226, 48 h
[21] = system: HL-60(TB); assay: Growth inhibition of human HL-60(TB) cells after 48 hrs by sulforhodamine B assay; assay type: functional; details: HL-60, 48 h
[22] = system: CCRF-CEM; assay: Growth inhibition of human CCRF-CEM cells after 48 hrs by sulforhodamine B assay; assay type: functional
[23] = system: BT-549; assay: Growth inhibition of human BT549 cells after 48 hrs by sulforhodamine B assay; assay type: functional; details: BT-549, 48 h
[24] = Growth inhibition of human Hs 578T cells after 48 hrs by sulforhodamine B assay; assay type: functional
[25] = system: MDA-MB-231; assay: Growth inhibition of human MDA-MB-231 cells after 48 hrs by sulforhodamine B assay; assay type: functional; details: MDA-MB-231, 48 h
[26] = system: TK-10; assay: Growth inhibition of human TK10 cells after 48 hrs by sulforhodamine B assay; assay type: functional; details: TK-10, 48 h
[27] = system: CAKI-1; assay: Growth inhibition of human CAKI-1 cells after 48 hrs by sulforhodamine B assay; assay type: functional; details: CAKI-1, 48 h
[28] = system: 786-0; assay: Growth inhibition of human 786-0 cells after 48 hrs by sulforhodamine B assay; assay type: functional; details: 786-0, 48 h
[29] = system: OVCAR-8; assay: Growth inhibition of human OVCAR8 cells after 48 hrs by sulforhodamine B assay; assay type: functional; details: OVCAR-8, 48 h
[30] = system: SK-MEL-28; assay: Growth inhibition of human SK-MEL-28 cells after 48 hrs by sulforhodamine B assay; assay type: functional; details: SK-MEL-28, 48 h
[31] = system: MDA-MB-435; assay: Growth inhibition of human MDA-MB-435 cells after 48 hrs by sulforhodamine B assay; assay type: functional, cell-based; details: MDA-MB-435, 48 h
[32] = system: Malme-3M; assay: Growth inhibition of human MALME-3M cells after 48 hrs by sulforhodamine B assay; assay type: functional
[33] = system: SF-268; assay: Growth inhibition of human SF268 cells after 48 hrs by sulforhodamine B assay; assay type: functional; details: SF-268, 48 h
[34] = read-out: LC50 (the source's name)

SMILES: Cc1cc(C(=O)Nc2cccc(-n3cc(-c4ccncc4)c(-c4ccc(Cl)c(O)c4)n3)c2)ccc1Br
- growth at 10 µM [1]: 103%
- growth at 10 µM [2]: 85.4%
- growth at 10 µM [3]: 70%
- growth at 10 µM [4]: 74.7%
- growth at 10 µM [5]: 93.9%
- growth at 10 µM [6]: 91.8%
- growth at 10 µM [7]: 99.7%
- growth at 10 µM [8]: 109%
- growth at 10 µM [9]: 95.1%
- growth at 10 µM [10]: 105%
- growth at 10 µM [11]: 89.5%
- growth at 10 µM [12]: 125%
- growth at 10 µM [13]: 102%
- growth at 10 µM [14]: 95.2%
- growth at 10 µM [15]: 97.8%
- growth at 10 µM [16]: 91.4%

SMILES: O=C(Nc1cccc(-n2cc(-c3ccncc3)c(-c3ccc(Cl)c(O)c3)n2)c1)Nc1ccc(Cl)c(C(F)(F)F)c1
- growth at 10 µM [1]: 1.33%
- growth at 10 µM [2]: -16.6%
- growth at 10 µM [3]: -36.4%
- growth at 10 µM [4]: -6.09%
- growth at 10 µM [5]: 17.3%
- GI50 [17]: 720 nM
- LC50 (concentration killing 50% of cells) [17]: 24.5 µM
- TGI [17]: 2500 nM
- GI50 [18]: 2390 nM
- LC50 (concentration killing 50% of cells) [18]: 16.1 µM
- TGI [18]: 6.75 µM
- GI50 [19]: 1090 nM
- TGI [19]: 4.48 µM
- CC50 [19, 34]: 24.7 µM
- GI50 [20]: 580 nM
- IC50 [20]: 580 nM
- TGI [20]: 2000 nM
- CC50 [20, 34]: > 32.5 µM
- GI50 [21]: 1500 nM
- TGI [21]: > 32.5 µM
- CC50 [21, 34]: > 32.5 µM
- GI50 [22]: 719 nM
- LC50 [22]: > 32.5 µM
- TGI [22]: 2700 nM
- growth at 10 µM [6]: 6.62%
- growth at 10 µM [7]: -16.9%
- growth at 10 µM [8]: 23.3%
- growth at 10 µM [9]: -41.8%
- growth at 10 µM [10]: -55.1%
- growth at 10 µM [11]: -25.5%
- growth at 10 µM [12]: -19.7%
- growth at 10 µM [13]: -60.2%
- growth at 10 µM [14]: -30%
- growth at 10 µM [15]: -30.7%
- GI50 [23]: 1250 nM
- LC50 (50% lethal concentration) [23]: > 32.5 µM
- TGI [23]: 8.07 µM
- GI50 [24]: 797 nM
- TGI [24]: 11.2 µM
- CC50 [24, 34]: > 32.5 µM
- GI50 [25]: 488 nM
- LC50 [25]: 11.4 µM
- TGI [25]: 1440 nM
- GI50 [26]: 1500 nM
- TGI [26]: 11.9 µM
- CC50 [26, 34]: > 32.5 µM
- GI50 [27]: 795 nM
- TGI [27]: 2630 nM
- CC50 [27, 34]: > 32.5 µM
- GI50 [28]: 1280 nM
- TGI [28]: > 32.5 µM
- CC50 [28, 34]: > 32.5 µM
- GI50 [29]: 759 nM
- TGI [29]: 2280 nM
- CC50 [29, 34]: > 32.5 µM
- GI50 [30]: 978 nM
- LC50 [30]: 12.4 µM
- TGI [30]: 3.33 µM
- GI50 [31]: 660 nM
- IC50 [31]: 660 nM
- TGI [31]: 1770 nM
- CC50 [31, 34]: 21.5 µM
- GI50 [32]: 576 nM
- LC50 (concentration killing 50% of starting cells) [32]: 9.58 µM
- TGI [32]: 1650 nM
- GI50 [33]: 1060 nM
- TGI [33]: 6.98 µM
- CC50 [33, 34]: > 32.5 µM
- growth at 10 µM [16]: -20.8%
